Experimental data: patent publication US7803792B2, “Quaternary ammonium compounds” (Asahi Kasei Pharma Corporation, priority 2002, dated 2010)

Key:
[1] = system: Rat model loaded with high cholesterol diet; test: Blood cholesterol lowering effect in rats fed on a high cholesterol diet (Test Example 1); assay type: in vivo; conditions: treatment model; 0.3 mg/kg at a time, oral twice a day; control group = 100%
Method: Blood Cholesterol Lowering Effect in Rats Fed on a High Cholesterol Diet
In this test example, blood cholesterol level lowering effect in rats fed on a high cholesterol diet was tested according to the method described in J. Lipid, Res., 1995, 36, 1098-1105.
That is, a diet containing 0.4% cholesterol and 0.5% of bile acid was given to 7 to 9 weeks old SD (IGS) male rats for 5 days before the test to increase the blood cholesterol level. […] Cholestimide (trade name: CHOLEBINE GRANULE 70% manufactured by MITSUBISHI TOKYO PHARMACEUTICALS, INC.), which is an anion exchange resin, was suspended in distilled water while the test compound was either dissolved or suspended in distilled water. These were forcibly orally administered twice a day every day from the day of beginning of the test (each n=8). After 3 hours from the administration of the drug on the last day of the test, a blood sample was taken from a jugular vein pool and serum cholesterol level was measured to study the effect of the test compound. Further, as a control group, a group (n=8) fed on only high cholesterol diet and given distilled water (1 ml/kg) was prepared and the same test procedure was followed. A commercially available kit was used for the measurement of total cholesterol and HDL cholesterol. The value obtained by subtracting an HDL cholesterol value from the total cholesterol value was taken as an LDL+VLDL cholesterol value. Assuming the LDL+VLDL cholesterol value of the control group, for which the test compound was not used, as 100%, the rate of decrease (percentage of decrease) of LDL +VLDL cholesterol value when a fixed amount of the test compound was used, was determined.

[2] = system: Caco 2 cells; test: Toxicity with respect to alimentary canal: cytotoxicity to Caco 2, LDH activity (Test Example 12); assay type: cell-based, human; conditions: LDH activity after 2 hours, relative to cytolytic agent = 100%
In short: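 Human Caco 2 intestinal cells, cultured 48 hours after seeding at 10,000 cells/well, received test compounds diluted in medium. LDH released into the medium after 2 hours was measured and expressed relative to cytolytic-agent-lysed cells (100%) as cytotoxicity.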

[3] = system: steatohepatitis model rats; test: Steatohepatitis model, choline-deficient diet (Test Example 15); assay type: in vivo, rat; conditions: 3 mg/kg oral once a day for 2 weeks; n = 4; average ± standard error
Text: In this test example, the steatohepatitis model was examined referring to the method of Okan A., et al. (Dig Dis Sci 47:2389-2397, 2002).
That is, 7 weeks old Wistar rats were fed with a choline-deficient diet (manufactured by Oriental Yeast Co., Ltd.) for 2 weeks to prepare a steatohepatitis model. A suspension of a test compound in an aqueous solution of 0.5% methyl cellulose (manufactured by WAKO PURE CHEMICAL […], LTD.) and an aqueous solution of 0.5% methyl cellulose (manufactured by WAKO PURE CHEMICAL […], LTD.) as a control were orally administered once a day for consecutive 2 weeks. On the day next to the last day of administration, a blood sample was taken from the abdominal aorta and AST (GOT) and ALT (GPT) in the blood were measured by using measuring kits (GOTII-HA TEST WAKO and GPTII-HA TEST WAKO, respectively, the both were manufactured by WAKO PURE CHEMICAL […], LTD.) on an auto analyzer (NITTECH ANALYZER SUPER Z818).

[4] = system: KKAy/Ta Jcl obese mice; test: Obesity and fatty liver model (Test Example 6); assay type: in vivo, mouse; conditions: average ± standard error; for Body Weight (g) 2 weeks later / Liver triglyceride / Body Weight (g) Variation amount: 1 mg/kg once a day for 2 weeks; for Liver triglyceride: controls 94 ± 18 / 103 ± 19; for Body Weight (g) Variation amount: controls −0.8 ± 0.5 / 0.7 ± 0.4; for Body Weight (g) Before administration: baseline of the 1 mg/kg group
Method: Obesity and Fatty Liver Model
The obesity and fatty liver model in this test example was handled by referring to the method described in WO02/09757.
That is, 10 weeks old KKA^y/Ta Jcl male mice were used as obese mice (N=from 4 to 7). The test compounds dissolved or suspended in an aqueous solution of 1% HCO60 (manufactured by NIPPON CHEMICALS COMPANY, LTD.) and an aqueous solution of 1% HCO60 (manufactured by NIPPON CHEMICALS COMPANY, LTD.) as a control group were administered once a day for 2 weeks continuously. The weights of the mice were measured every day and compared with the weights measured on the day before the administration. On the day next to the final day of administration of the drug, the livers were extracted and concentrations of triglycerides in the liver tissues were measured by using a measurement kit (TRIGLYCERIDE TEST WAKO, manufactured by WAKO PURE CHEMICAL […], LTD.).

[5] = system: Cholic acid-loaded rat model; test: Bile acid-decreasing effect in portal vein of rats loaded with cholic acid (Test Example 2); assay type: in vivo; conditions: 0.1 mg/kg oral with cholic acid 200 mg/kg; portal vein blood after 2 hours; HCO-60 0.1%
Method: Bile Acid-Decreasing Effect in Portal Vein of Rats Loaded With Cholic Acid
In this test example, the test for confirming the bile acid-decreasing effect in portal vein of cholic acid-loaded rats was carried out according to the method described in Pharmacology and Therapeutics [Jpn Pharmacol. Ther., Vol. 24 Supplement, 1996, 103 (S-577)-110 (S-584)].
That is, 7 to 9 weeks old SD (IGS) rats were starved on the day before the test and thereafter. […] After 2 hours from the administration, a sample of blood was taken from a portal vein and total serum bile acid level was measured to study the effect of the test compound (n=6). Further, as a control group, a group (n=6) loaded with cholic acid (200 mg/kg) only was prepared and the same test procedure was followed. A commercially available kit (trade name: SOTANJUSAN-TEST WAKO-(SOTANJUSAN=total bile acid), manufactured by WAKO PURE CHEMICAL […], LTD.) was used for the measurement of bile acid. Assuming the value of the control group, which is a group in which no test compound was used, as 100%, the rate of decrease (percentage (%) of decrease) of the bile acid level when a fixed amount of the test compound was used was determined.

SMILES	Rate of decrease (%) of LDL + VLDL [1]	Toxicity (%) to Caco 2 ([2]; 3 μM)	Toxicity (%) to Caco 2 ([2]; 10 μM)	Toxicity (%) to Caco 2 ([2]; 30 μM)	ALT [3]	AST [3]	Body Weight (g) 2 weeks later [4]	Liver triglyceride [4]	Body Weight (g) Variation amount [4]	Body Weight (g) Before administration [4]	Rate of decrease (%) of bile acid [5]
CCCCC1(CCCC)CS(=O)(=O)c2ccc(N(C)C)cc2C(c2cccc(NC(=S)CCCCC[N+]34CCC(CC3)CC4)c2)N1.[Br-] (centres unmarked) [Example 1, 1-{5-[3-(3,3-Dibutyl-7-dimethylamino-1,1-dioxo-2,3,4,5-tetrahydro-1,4-benzothiazepin-5-yl)phenylthiocarbamoyl]pentyl}-1-azoniabicyclo[2.2.2]octane bromide]	49%										
CCCCC1(CCCC)CS(=O)(=O)c2ccc(N(C)C)cc2C(c2cccc(NC(=S)Nc3ccc(C[N+](C)(C)Cc4ccccc4)cc3)c2)N1.[Br-] (centres unmarked) [Example 3440]	36%	<1%	<1%	<1%	167 ± 93 IU/L	125 ± 34 IU/L	43.9 ± 1.8 g	88 ± 6 mg/g	-0.7 ± 1.0 g	44.6 ± 0.8 g	26%
C#CC[N+](C)(Cc1ccccc1)Cc1ccc(NC(=S)Nc2cccc(C3NC(CCCC)(CCCC)CS(=O)(=O)c4ccc(N(C)C)cc43)c2)cc1 (centres unmarked) [Example 3448]	20%	<1%	<1%	<1%	143 ± 79 IU/L	134 ± 23 IU/L	42.1 ± 3.2 g	74 ± 8 mg/g	-2.0 ± 0.7 g	44.1 ± 0.7 g	25%
CCCCC1(CCCC)CS(=O)(=O)c2ccc(N(C)C)cc2C(c2cccc(NC(=S)Nc3ccc(C[N+]4(Cc5ccccc5)CCC(O)CC4)cc3)c2)N1.[Br-] (centres unmarked) [Example 3605]	28%	<1%	<1%	<1%	121 ± 36 IU/L	80 ± 34 IU/L	41.4 ± 1.0 g	65 ± 7 mg/g	-1.5 ± 0.4 g	42.9 ± 1.1 g	24%
CCCCC1(CCCC)CS(=O)(=O)c2ccc(N(C)C)cc2C(c2cccc(NC(=S)Nc3ccc(C[N+]45CCC(c6ccccc6)(CC4)CC5)cc3)c2)N1.[Br-] (centres unmarked) [Example 3696]	25%	<1%	<1%	<1%	145 ± 34 IU/L	98 ± 23 IU/L	42.2 ± 2.2 g	76 ± 12 mg/g	-1.3 ± 0.3 g	43.5 ± 1.3 g	13%
CCCCC1(CCCC)CS(=O)(=O)c2ccc(N(C)C)cc2C(c2cccc(NC(=S)Nc3ccc(C[n+]4ccc(C(C)(C)C)cc4)cc3)c2)N1.[Br-] (centres unmarked) [Example 3713]	41%	<1%	<1%	<1%	118 ± 36 IU/L	77 ± 37 IU/L	41.5 ± 2.4 g	59 ± 33 mg/g	-2.5 ± 0.6 g	44.0 ± 1.1 g	32%
CCCCC1(CCCC)CS(=O)(=O)c2ccc(N(C)C)cc2C(c2cccc(NC(=S)Nc3ccc(C[n+]4cccc(CCCO)c4)cc3)c2)N1.[Br-] (centres unmarked) [Example 3747]	48%	<1%	<1%	<1%	102 ± 50 IU/L	63 ± 86 IU/L	42.2 ± 1.8 g	47 ± 23 mg/g	-2.1 ± 1.0 g	44.3 ± 0.8 g	40%
CCCCC1(CCCC)CS(=O)(=O)c2ccc(N(C)C)cc2C(c2cccc(NC(=S)Nc3ccc(C[n+]4cccc(CCC(=O)OC)c4)cc3)c2)N1.[Br-] (centres unmarked) [Example 3752]	50%	<1%	<1%	<1%	88 ± 45 IU/L	69 ± 98 IU/L	41.5 ± 1.0 g	56 ± 23 mg/g	-2.3 ± 0.9 g	43.8 ± 1.2 g	42%
CCCCC1(CCCC)CS(=O)(=O)c2ccc(N(C)C)cc2C(c2cccc(NC(=S)Nc3ccc(C[n+]4ccccc4CCC)cc3)c2)N1.[Br-] (centres unmarked) [Example 5408]	43%	<1%	<1%	<1%	149 ± 38 IU/L	103 ± 45 IU/L	42.2 ± 1.6 g	70 ± 11 mg/g	-1.8 ± 0.5 g	44.0 ± 0.9 g	35%
